In patent US6841169B2, “Stabilizer for pharmacons” (Rijksuniversiteit Groningen, priority 2001, dated 2005):

Experiments:
alkaline phosphatase = settings: for Activity alkaline phosphatase after freeze-drying and 6 days at 0% RH and 60° C.: alkaline phosphatase to stabilizer 1 to 9, average of 4 independent experiments; for Activity alkaline phosphatase directly after freeze drying: alkaline phosphatase to stabilizer 1 to 9 by weight, average of 2 independent experiments
Experimental: Alkaline phosphatase with and without stabilizer was dissolved in a 0.05 M 2-amino-2-methyl-1,3-propanediol solution in water, pH 9.8. The concentration of alkaline phosphatase was 2.5 mg/mL in all cases. […] Trehalose and glucose were used as positive and negative control, respectively. The weight ratio of alkaline phosphatase to stabilizer was 1 to 9 in all cases. Of the solutions, 2 mL were transferred to glass sample vessels of a diameter of about 2 cm. The sample vessels were transferred to liquid nitrogen. After the solution had frozen completely, the sample vessels were transferred to a Christ freeze-drier, model Alpha 2-4, at a plate temperature of −30° C., followed by freeze-drying at a condenser temperature of −53° C. and a pressure of 0.220 mbar for 18 hours. Then, during 6 hours, the plate temperature and the pressure were gradually raised to 20° C. and 0.520 mbar, respectively. Thereafter the freeze-drying process was continued for 20 more hours.
Two series of experiments were carried out. In the first series, the samples were left to stand for 6 days at 0% relative humidity (RH) and 60° C., whereafter the activity of the protein was determined. In the second series of experiments, the samples were left to stand in an exsiccator above silica gel (0% RH) or in controlled-climate cabinets (45% and 60% RH) at 20° C. At different times, the activity of the protein was determined.
The activity of alkaline phosphatase was determined as follows. The freeze-dried samples were reconstituted with water. To 50 μl of the solution obtained, there were added 905 μL of a 0.05 M 2-amino-2-methyl-1,3-propanediol solution in water, pH 9.8, and 20 μL of a 100 mM MgCl2 solution in water. Next, 50 μL of a freshly prepared solution of 10 mg phosphatase substrate (para-nitrophenyl phosphate) per mL water were added. The mixture was vortexed and then incubated at 37° C. After 30 minutes, the reaction was stopped by addition of 5.0 mL of a 0.1 N solution of NaOH in water. The extinction of the solution obtained was measured at 405 nm. A calibration line was made using freshly prepared solutions of alkaline phosphatase in 0.05 M 2-amino-2-methyl-1,3-propanediol in water, pH 9.8, of known concentrations.

[1] = Freeze-drying at a sample temperature of −16° C. (cake formation); format: physicochemical; settings: sample temperature −16° C.
Experimental: This last was tested in experiments with trehalose and inulin. Freeze-drying was done at a sample temperature of −16° C. […] Accordingly, inulin can be freeze-dried under less stringent conditions.

[2] = Storage of sugar glasses at 20° C. at raised relative air humidity (deliquescence); format: physicochemical; settings: 45% relative air humidity
Excerpt: In practice, a sugar glass will never be completely anhydrous. This is for instance the consequence of uptake of water from the air. […] The extent of water uptake depends on the hygroscopicity of the material and of the relative degree of air humidity.

[3] = from scientific publications; cited from earlier work

SMILES: O=C[C@H](O)[C@@H](O)[C@H](O)[C@H](O)CO [Glucose]
- Activity alkaline phosphatase after freeze-drying and 6 days at 0% RH and 60° C. (alkaline phosphatase): 0.8 ± 4.5%
- Activity alkaline phosphatase directly after freeze drying (alkaline phosphatase): 110.3 ± 10.6%
- Activity of the protein after 4 weeks at 45% RH (in words) (alkaline phosphatase; freeze-dried samples, 4 weeks, 45% RH, 20° C.): substantial decrease of the activity
- Activity of alkaline phosphatase after 4 weeks at 45% RH (alkaline phosphatase; freeze-dried samples, 4 weeks, 45% RH, 20° C., FIG. II): 57.9±3.1%
- Activity of the protein after 4 weeks at 60% RH (in words) (alkaline phosphatase; freeze-dried samples, 4 weeks, 60% RH, 20° C.): substantial decrease of the activity
- Activity of alkaline phosphatase after four weeks at 60% RH (alkaline phosphatase; freeze-dried samples, 4 weeks, 60% RH, 20° C., FIG. III): 46.3±16.1%
- Activity of the protein after 6 days of storage at 0% RH and 60° C. (in words) (alkaline phosphatase; freeze-dried samples): gone completely

SMILES: OC[C@H]1O[C@H](O[C@H]2O[C@H](CO)[C@@H](O)[C@H](O)[C@H]2O)[C@H](O)[C@@H](O)[C@@H]1O [Trehalose]
- Activity alkaline phosphatase after freeze-drying and 6 days at 0% RH and 60° C. (alkaline phosphatase): −1.4 ± 2.8%
- Activity alkaline phosphatase directly after freeze drying (alkaline phosphatase): 95.9 ± 11.5%
- Activity of the protein after 6 days of storage at 0% RH and 60° C. (in words) (alkaline phosphatase; freeze-dried samples): gone completely
- Cake obtained on freeze-drying [1]: collapsed cake
- Behaviour of glass exposed to relative air humidity of 45% [2]: first deliquesced (that is, the Tg falls below 20° C.) and then crystallized
- Tg (glass transition temperature) [3]: ~120 °C
